Measurements: EP0311002A2, “Anthracyclin derivatives, a method for their preparation and their use as a drug” (HOECHST AKTIENGESELLSCHAFT, priority 1987, dated 1989)

Test: Qualitative solubility in solvents
Assay type: physicochemical

Löslichkeit (in Methanol, Ethylacetat, Chloroform und Toluol): leicht löslich
Löslichkeit (in Wasser und Hexan): unlöslich
Substance: 5‴-Epi-Cytorhodin S
